Assays:
[1] = tested on: Wistar rats; assay: Muscle mass in the TNF-α-induced myatrophy animal model; format: in vivo; conditions: once daily for eight weeks, extract 500 mg/kg, flavones 300 mg/kg; for Calf muscle weight: TNF-α 100 ng/g for two weeks, TNF-α control 437 mg; for muscle weight compared to the control levels: TNF-α-induced myatrophy, p<0.01
Method: Five-week-old Wistar rats were acclimated for one week and myatrophy was induced by supplying TNF-α at the dose of 100 ng/g for two weeks. Afterwards, rats were randomly divided according to body weight into a total of 4 groups, each consisting of 8 rats. Each of the Kaempferia parviflora extract and flavone compounds was suspended in 0.25% carboxymethylcellulose and administered once daily for eight weeks at the dose of 500 mg/kg body weight for the Kaempferia parviflora extract, 300 mg/kg body weight for each of 5,7-dimethoxyflavone, 5,7,4′-trimethoxyflavone and 3,5,7,3′,4′-pentamethoxyflavone. The control group was administered with the same amount of 0.25% carboxymethylcellulose only as well as TNF-α.
After eight weeks of treatments, calf muscles were dissected out and weighed using microbalance (Mettler PE160, USA).

[2] = tested on: MuRF1; assay: RT-PCR of MuRF1 mRNA in differentiated L6 cells treated with TNF-α; format: cell-based; conditions: TNF-α 24 hours, then 5,7-dimethoxyflavone 1 or 5 μM, normalized by β-actin, FIG. 1
Method: (§1) Muscle cell-line L6 myoblast (American Type Culture Collection, Manassas, Va., USA) was cultured in DMEM (10% FBS, 100 U/mL penicillin, 100 µg/mL streptomycin). When the cell density reached approximately 80˜85%, differentiation was induced for six days by replacing the culture medium with DMEM growth medium supplemented with 2% FBS for further experiments. In order to evoke muscle reduction in the differentiated L6 cells, cells were treated with TNF-α for 24 hours followed by the treatment with 5,7-dimethoxyflavone prepared in Example 2-1 at different concentrations (1 or 5 μM). RT-PCR experiments were performed to examine the expression levels of atrogin-1 and MuRF1, major ligases involved in protein catabolism in the muscles. Total RNA was obtained from the differentiated cells using Trizol (Invitrogen, Carlsbad, Calif., USA) and subjected to reverse transcription as follows. Total RNA isolated as above was reverse-transcribed using reverse transcriptases. The following primers were used for RT-PCR experiments.
(§2) Relative levels of mRNA for each gene was normalized by the value of β-actin.

[3] = tested on: atrogin-1; assay: RT-PCR of atrogin-1 mRNA in differentiated L6 cells treated with TNF-α; format: cell-based; conditions: TNF-α 24 hours, then 5,7-dimethoxyflavone 1 or 5 μM, normalized by β-actin, FIG. 1
Method: as §1, §2

[4] = tested on: PI3K; assay: Western blot of PI3K protein in L6 cells; format: cell-based; conditions: 5,7-dimethoxyflavone 1 or 5 μM (FIG. 3), extract 1 or 10 μg/ml (FIG. 5)
Method: as §1
(§3) L6 cells were treated in the same manner as Experimental example 1, and were lysed with RIPA buffered solution containing a proteinase inhibitor cocktail. […] Protein bands were visualized using ECL western blotting detected reagents (Amersham, Tokyo, Japan). […]

[5] = tested on: p-mTOR; assay: Western blot of p-mTOR protein in L6 cells; format: cell-based; conditions: 5,7-dimethoxyflavone 1 or 5 μM (FIG. 3), extract 1 or 10 μg/ml (FIG. 5)
Method: as §1, §3

[6] = tested on: p-Akt; assay: Western blot of p-Akt protein in L6 cells; format: cell-based; conditions: 5,7-dimethoxyflavone 1 or 5 μM (FIG. 3), extract 1 or 10 μg/ml (FIG. 5)
Method: as §1, §3

[7] = tested on: myogenin; assay: RT-PCR of myogenin mRNA in differentiated L6 cells; format: cell-based; conditions: 5,7-dimethoxyflavone 1 or 5 μM (FIG. 2), extract 1 or 10 μg/ml (FIG. 4), normalized by β-actin
[8] = tested on: myoD; assay: RT-PCR of myoD mRNA in differentiated L6 cells; format: cell-based; conditions: 5,7-dimethoxyflavone 1 or 5 μM (FIG. 2), extract 1 or 10 μg/ml (FIG. 4), normalized by β-actin

Row | Compound | Calf muscle weight [1] [mg] | muscle weight compared to the control levels [1] [%] | mRNA level of MuRF1 [2] | mRNA level of atrogin-1 [3] | protein level of PI3K [4] | protein level of p-mTOR [5] | protein level of p-AKT [6] | mRNA level of myogenin [7] | mRNA level of myoD [8]
1 | COc1cc(OC)c2c(=O)cc(-c3ccccc3)oc2c1 [5,7-dimethoxyflavone] | 551 | 126 | reduces | reduces | upregulate | upregulate | upregulate | increases | increases
2 | COc1ccc(-c2cc(=O)c3c(OC)cc(OC)cc3o2)cc1 [5,7,4′-trimethoxyflavone] | 519 | 118 |  |  |  |  |  |  | 
3 | COc1cc(OC)c2c(=O)c(OC)c(-c3ccc(OC)c(OC)c3)oc2c1 [3,5,7,3′,4′-pentamethoxyflavone] | 528 | 120 |  |  |  |  |  |  | 
